Laboratory results reported in patent US20190076384A1, “METHODS FOR TREATING UREA CYCLE DISORDERS” (priority 2017, published 2019).
Where two headings read alike, the source gives them in different places.

Columns and labels:
Cytochrome P450 3A4 = Cytochrome P450 3A4 (Homo sapiens, UniProt P08684); experiment: clinical; conditions: for overall 1′-OH-midazolam exposure (based on AUC) increased by: free+conjugates
Experimental: (§1) Methodology: This was a Phase 1, open-label, monosequence crossover, drug-drug interaction study of RAVICTI® and midazolam in healthy male and female subjects.
(§2) Single doses of midazolam HCl syrup (2 mg/mL) were administered in the morning following an approximate 10-hour fast on Days 1 and 5 (coadministered with RAVICTI® on Day 5) just prior to administration of breakfast (˜5 minutes before breakfast).
(§3) Pharmacokinetics: Blood samples for the analysis of plasma midazolam and its metabolite (1′-OH-midazolam, free+conjugates) levels were collected via an indwelling catheter and/or via direct venipuncture. Blood samples were collected on Days 1 and 5 at the following time points: predose, 0.5, 1, 2, 3, 4, 6, 8, 10, 12, 16, and 24 hours postdose. In addition, five plasma PK samples for GPB analysis were collected on Day 4 at the following time points: at 1 minute, 30 minutes, and 1 hour following the first morning dose of RAVICTI; at 30 minutes and 1 hour post second dose of RAVICTI.
(§4) Pharmacokinetics: The possible drug-drug interaction was examined between coadministration of RAVICTI and midazolam (test) and midazolam administered alone (reference). An analysis of variance (ANOVA), with treatment as a fixed effect and subject as a random effect, was performed. Data for Cmax, AUC0-t, and AUC0-∞, as appropriate, were natural log (ln)-transformed prior to analysis. The 90% confidence intervals (CIs) of the test group means relative to the reference group means were obtained by taking the antilog of the corresponding 90% CIs for the differences between the means on the log scale, i.e., ratio of geometric least-squares (LS) means.

Cytochrome P450 2C9 = Cytochrome P450 2C9 (Homo sapiens, UniProt P11712); experiment: clinical; conditions: 200 mg celecoxib with RAVICTI 4 mL three times a day for 6 days, fed conditions
Experimental: (§5) Methodology: This was an open-label, 2-period, monosequence crossover, drug-drug interaction (DDI) study of RAVICTI and celecoxib in healthy male and female subjects.
(§6) Test Product, Dose, Duration, and Mode of Administration: In Treatment A (Period 1), subjects received 200 mg celecoxib (1×200 mg capsule) administered orally with approximately 240 mL of water following an overnight fast and approximately 5 minutes prior to the start of a standard breakfast on Day 1.
(§7) Pharmacokinetics: Blood samples (4 mL) for the analysis of plasma celecoxib were collected on Days 1 (Period 1) and 4 (Period 2) at the following time points: predose (Hour 0) and 1, 2, 3, 4, 6, 8, 12, 16, 24, 36, 48, 60, and 72 hours postdose. A blood sample (6 mL) for CYP2C9 genotyping was collected at screening to exclude any subjects with a slow metabolizer genotype (i.e., CYP2C9*2/*2, CYP2C9*2/*3, CYP2C9*1/*3, and CYP2C9*3/*3). PK parameters for celecoxib in plasma were computed following Day 1 (Period 1) and Day 4 (Period 2) blood draws and included AUC0-t, AUC0-inf, AUC%extr, Cmax, tmax, t1/2, kel, and CL/F.
(§8) Pharmacokinetics: The possible DDI was examined between co-administration of RAVICTI and celecoxib (Treatment B, test) and celecoxib administered alone (Treatment A, reference). An analysis of variance (ANOVA) was performed with treatment as a fixed effect and subject as a random effect. Data for AUC0-t, AUC0-inf, and Cmax, as appropriate, were ln-transformed prior to analysis. The 90% confidence intervals (CIs) of the test group means relative to the reference group means were obtained by taking the antilog of the corresponding 90% CIs for the differences between the means on the log scale, i.e., ratio of geometric least-squares (LS) means.

CYP2C9 [1] = target: T1, CYP2C9 (Homo sapiens, UniProt P11712); experiment: clinical; conditions: both, human, plasma, oral, 200 mg
Experimental: as §5, §6, §7, §8

CYP3A4 = CYP3A4 (Homo sapiens, UniProt P08684); experiment: clinical; conditions: both, human, in vivo, 3 mg
Experimental: as §1, §2, §3, §4

CYP2C9 [2] = target: T1, CYP2C9; conditions: for % Inhibition: Diclofenac 4′-hydroxylase, 20.7 mM (2.818 mg/ml)
CYP2C9 [3] = target: T1, CYP2C9; experiment: In vitro CYP inhibition study, human liver microsomes, CYP2C9
CYP1A2 = target: T2, CYP1A2 (Homo sapiens, UniProt P05177); type: in vitro ADME; conditions: for % Inhibition: 7-ethoxyresorufin-O-deethylase
T2 construct: from tissue; host or cells: human liver microsomes
T2 sequence (P05177 1-516): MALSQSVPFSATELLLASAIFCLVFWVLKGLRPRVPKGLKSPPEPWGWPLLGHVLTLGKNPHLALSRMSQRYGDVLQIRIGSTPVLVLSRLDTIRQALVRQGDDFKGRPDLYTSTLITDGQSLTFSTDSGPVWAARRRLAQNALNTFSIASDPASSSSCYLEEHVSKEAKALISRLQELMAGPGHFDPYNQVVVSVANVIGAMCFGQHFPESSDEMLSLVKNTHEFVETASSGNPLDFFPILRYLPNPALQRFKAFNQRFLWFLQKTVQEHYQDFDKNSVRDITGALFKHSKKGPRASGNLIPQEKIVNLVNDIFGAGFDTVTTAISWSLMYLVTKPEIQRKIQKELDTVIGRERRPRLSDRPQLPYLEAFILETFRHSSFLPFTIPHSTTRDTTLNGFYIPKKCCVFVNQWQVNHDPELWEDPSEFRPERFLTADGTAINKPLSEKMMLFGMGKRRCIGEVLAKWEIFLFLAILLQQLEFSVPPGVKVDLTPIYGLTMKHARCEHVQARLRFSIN

CYP3A4/5 [4] = experiment: Induction of CYP3A4/5 in cultured human hepatocytes; conditions: for Relative potency (%): PAA 20.7 mM; for Fold induction: PAA 20.7 mM (concentration of maximum fold induction)
CYP2C8 = target: T3, CYP2C8 (Homo sapiens, UniProt P10632); experiment: In vitro CYP inhibition study, human liver microsomes, CYP2C8; type: in vitro ADME; conditions: for % Inhibition: Taxol 6α-hydroxylase
T3 construct: from tissue; host or cells: human liver microsomes
T3 sequence (P10632 1-490): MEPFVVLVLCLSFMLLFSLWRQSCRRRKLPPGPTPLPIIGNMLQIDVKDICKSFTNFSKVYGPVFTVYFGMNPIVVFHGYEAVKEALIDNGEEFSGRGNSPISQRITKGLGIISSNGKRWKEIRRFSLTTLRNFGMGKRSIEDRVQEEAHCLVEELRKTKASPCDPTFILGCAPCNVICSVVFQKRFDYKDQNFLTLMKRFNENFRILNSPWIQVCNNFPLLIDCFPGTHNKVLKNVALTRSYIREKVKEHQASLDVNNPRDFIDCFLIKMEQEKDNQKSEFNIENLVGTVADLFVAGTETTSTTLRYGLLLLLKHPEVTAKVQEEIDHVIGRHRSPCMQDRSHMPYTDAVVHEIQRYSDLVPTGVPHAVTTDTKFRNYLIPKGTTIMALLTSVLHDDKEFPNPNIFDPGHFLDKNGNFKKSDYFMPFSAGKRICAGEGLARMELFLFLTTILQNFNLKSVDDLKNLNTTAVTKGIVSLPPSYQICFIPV

CYP2C19 = target: T4, CYP2C19 (Homo sapiens, UniProt P33261); type: in vitro ADME; conditions: for % Inhibition: S-Mephenytoin 4′-hydroxylase
T4 construct: from tissue; host or cells: human liver microsomes

CYP3A4/5 [5] = type: in vitro ADME, human
CYP2D6 = CYP2D6 (Homo sapiens, UniProt P10635); conditions: for % Inhibition: Bufuralol 1′-hydroxylase, 20.7 mM (2.818 mg/ml)
CYP3A4/5 [6] = test system: CYP3A4/5
[7] = Mean peak concentration of PBA and PAA in different patient populations
[8] = after RAVICTI 4 mL three times a day for 3 days, fed conditions, healthy subjects
[9] = upon coadministration with multiple-dose RAVICTI
[10] = at a concentration higher than the observed plasma concentrations
[11] = 20.7 mM (2.818 mg/ml), pre-incubation time 0 min
[12] = 20.7 mM (2.818 mg/ml), pre-incubation time 30 min
[13] = 5 mM, pre-incubation time 0 min
[14] = 5 mM, pre-incubation time 30 min

T4 sequence (P33261 whole entry): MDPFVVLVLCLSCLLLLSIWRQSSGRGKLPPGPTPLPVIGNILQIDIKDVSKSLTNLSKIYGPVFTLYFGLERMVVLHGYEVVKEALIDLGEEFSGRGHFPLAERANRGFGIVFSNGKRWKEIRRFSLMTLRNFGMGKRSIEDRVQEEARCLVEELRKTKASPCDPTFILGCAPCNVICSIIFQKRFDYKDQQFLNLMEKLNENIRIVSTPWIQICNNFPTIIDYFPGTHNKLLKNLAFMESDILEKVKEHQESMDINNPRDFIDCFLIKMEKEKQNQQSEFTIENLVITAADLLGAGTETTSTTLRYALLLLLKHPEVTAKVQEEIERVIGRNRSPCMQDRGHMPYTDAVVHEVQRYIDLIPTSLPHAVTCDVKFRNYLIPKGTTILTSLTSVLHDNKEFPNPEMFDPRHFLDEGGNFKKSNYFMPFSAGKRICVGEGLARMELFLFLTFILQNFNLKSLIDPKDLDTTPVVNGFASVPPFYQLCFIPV
T1 sequence (P11712 whole entry): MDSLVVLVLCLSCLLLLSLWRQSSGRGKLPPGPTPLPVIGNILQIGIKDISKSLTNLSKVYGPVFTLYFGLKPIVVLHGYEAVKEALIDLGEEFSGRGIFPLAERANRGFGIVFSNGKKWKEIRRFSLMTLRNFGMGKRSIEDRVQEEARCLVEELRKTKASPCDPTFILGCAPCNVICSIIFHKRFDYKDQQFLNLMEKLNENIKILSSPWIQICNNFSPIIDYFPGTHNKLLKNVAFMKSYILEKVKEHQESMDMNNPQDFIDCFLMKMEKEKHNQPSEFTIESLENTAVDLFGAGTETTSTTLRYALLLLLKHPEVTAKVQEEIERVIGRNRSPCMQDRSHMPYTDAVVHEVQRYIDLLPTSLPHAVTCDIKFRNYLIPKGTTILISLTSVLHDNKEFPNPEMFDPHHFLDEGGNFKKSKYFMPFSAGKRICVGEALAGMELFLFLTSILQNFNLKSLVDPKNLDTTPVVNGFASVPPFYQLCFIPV
Sequence of CYP3A4 (P08684 whole entry): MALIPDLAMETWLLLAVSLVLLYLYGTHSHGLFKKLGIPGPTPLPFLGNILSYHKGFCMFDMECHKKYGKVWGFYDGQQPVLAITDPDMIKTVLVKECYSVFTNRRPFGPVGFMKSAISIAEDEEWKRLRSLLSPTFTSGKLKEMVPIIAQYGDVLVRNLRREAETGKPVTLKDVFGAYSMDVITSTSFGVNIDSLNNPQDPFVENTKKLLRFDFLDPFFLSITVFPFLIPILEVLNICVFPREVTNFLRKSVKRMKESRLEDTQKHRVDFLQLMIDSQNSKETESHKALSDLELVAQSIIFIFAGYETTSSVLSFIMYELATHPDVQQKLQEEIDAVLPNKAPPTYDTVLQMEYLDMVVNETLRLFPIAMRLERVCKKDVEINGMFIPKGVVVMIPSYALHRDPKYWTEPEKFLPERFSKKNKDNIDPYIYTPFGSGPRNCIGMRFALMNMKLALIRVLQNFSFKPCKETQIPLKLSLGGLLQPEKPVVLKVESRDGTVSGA
Sequence of Cytochrome P450 3A4 (P08684 whole entry): as above
Sequence of CYP2D6 (P10635 whole entry): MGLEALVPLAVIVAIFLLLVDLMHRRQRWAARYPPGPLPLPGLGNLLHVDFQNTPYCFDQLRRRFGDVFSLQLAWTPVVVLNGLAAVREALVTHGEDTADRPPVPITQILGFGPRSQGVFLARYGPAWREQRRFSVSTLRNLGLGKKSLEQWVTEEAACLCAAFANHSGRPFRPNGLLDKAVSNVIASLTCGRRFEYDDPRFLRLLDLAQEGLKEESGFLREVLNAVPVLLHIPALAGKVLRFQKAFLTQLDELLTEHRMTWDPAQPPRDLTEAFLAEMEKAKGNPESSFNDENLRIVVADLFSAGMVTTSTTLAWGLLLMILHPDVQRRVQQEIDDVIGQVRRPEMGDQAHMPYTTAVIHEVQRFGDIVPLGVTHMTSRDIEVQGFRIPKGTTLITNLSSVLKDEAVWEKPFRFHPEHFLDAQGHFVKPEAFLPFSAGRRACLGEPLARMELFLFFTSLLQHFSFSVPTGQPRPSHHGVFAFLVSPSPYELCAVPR
Sequence of Cytochrome P450 2C9 (P11712 whole entry): as the sequence (P11712 whole entry) above

Molecule: OCc1ncc2n1-c1ccc(Cl)cc1C(c1ccccc1F)=NC2 [1′-OH-midazolam]
- mean AUC for 1-hydroxy midazolam higher than midazolam alone (Cytochrome P450 3A4; [8]): 58%
- mean Cmax for 1-hydroxy midazolam higher than midazolam alone (Cytochrome P450 3A4; [8]): 28%
- 1′-OH-midazolam Cmax (peak exposure) increased by (Cytochrome P450 3A4; [9]): 28%
- overall 1′-OH-midazolam exposure (based on AUC) increased by (Cytochrome P450 3A4; [9]): approximately 60%
- overall 1′-OH-midazolam exposure (based on AUC) increased by (Cytochrome P450 3A4; upon coadministration with multiple-dose RAVICTI, listed as 1′-hydroxy-midazolam): 60%

Molecule: Cc1ccc(-c2cc(C(F)(F)F)nn2-c2ccc(S(N)(=O)=O)cc2)cc1 [Celecoxib, celecoxib]
- mean AUC for celecoxib lower than celecoxib alone (Cytochrome P450 2C9): 8%
- mean Cmax for celecoxib lower than celecoxib alone (Cytochrome P450 2C9): 13%
- AUC(0-inf) (CYP2C9 [1]): 5440 ng·h/mL
- AUC(0-t) (CYP2C9 [1]): 5170 ng·h/mL
- Cmax (CYP2C9 [1]): 620 ng/mL

Molecule: Cc1ncc2n1-c1ccc(Cl)cc1C(c1ccccc1F)=NC2 [Midazolam, midazolam]
- mean AUC for midazolam lower than midazolam alone (Cytochrome P450 3A4; [8]): 32%
- mean Cmax for midazolam lower than midazolam alone (Cytochrome P450 3A4; [8]): 25%
- midazolam overall exposure reduced by (Cytochrome P450 3A4; [9]): ~32%
- midazolam peak exposure reduced by (Cytochrome P450 3A4; [9]): approximately 26%
- midazolam peak exposure reduced by (Cytochrome P450 3A4; upon coadministration with multiple-dose RAVICTI, listed as midazolam): 26%
- AUC(0-inf) (CYP3A4): 67 ng·h/mL
- AUC(0-t) (CYP3A4): 64.7 ng·h/mL
- Cmax (CYP3A4): 16.8 ng/mL

Molecule: phenylacetate [PAA]
- % Inhibition (CYP2C9 [2]; pre-incubation time 0 min): 47%
- % Inhibition (CYP2C9 [2]; pre-incubation time 30 min): 44%
- inhibition of CYP2C9 (in words) (CYP2C9 [2]; at 20.7 mM): inhibited
- effect on CYP2C9 (in words) (CYP2C9 [2]; [10]): inhibitory effect
- [I]/Ki ratio, CYP2C9 (CYP2C9 [2]; based on mean peak PAA concentration in UCD patients): < 0.1
- Ki (CYP2C9 [3]): 15.1 mM
- % Inhibition (CYP1A2; [11]): 58%
- % Inhibition (CYP1A2; [12]): 47%
- inhibition of CYP1A2 (in words) (CYP1A2; at 20.7 mM): inhibited
- induction of CYP3A4/5 (CYP3A4/5 [4]; cultured human hepatocytes, PAA): < 1.8 fold
- Relative potency (%) (CYP3A4/5 [4]; donor Hu0793): 13.1%
- Fold induction (CYP3A4/5 [4]; donor Hu0793): 1.4 fold
- Relative potency (%) (CYP3A4/5 [4]; donor Hu4156): 18.2%
- Fold induction (CYP3A4/5 [4]; donor Hu4156): 1.7 fold
- % Inhibition (CYP2C8; [11]): 50%
- % Inhibition (CYP2C8; [12]): 49%
- inhibition of CYP2C8 (in words) (CYP2C8; at 20.7 mM): inhibited
- % Inhibition (CYP2C19; [11]): 37%
- % Inhibition (CYP2C19; [12]): 37%
- inhibition of CYP2C19 (in words) (CYP2C19; at 20.7 mM): inhibited
- % Inhibition (CYP3A4/5 [5]; Midazolam 1′-hydroxylase, 20.7 mM (2.818 mg/ml), pre-incubation time 0 min): 63%
- % Inhibition (CYP3A4/5 [5]; Midazolam 1′-hydroxylase, 20.7 mM (2.818 mg/ml), pre-incubation time 30 min): 65%
- % Inhibition (CYP3A4/5 [5]; Testosterone 6β-hydroxylase, 20.7 mM (2.818 mg/ml), pre-incubation time 0 min): 60%
- % Inhibition (CYP3A4/5 [5]; Testosterone 6β-hydroxylase, 20.7 mM (2.818 mg/ml), pre-incubation time 30 min): 63%
- inhibition of CYP3A4/5 (in words) (CYP3A4/5 [5]; at 20.7 mM): inhibited
- effect on CYP3A4 (in words) (CYP3A4/5 [5]; [10]): inhibitory effect
- % Inhibition (CYP2D6; pre-incubation time 0 min): 49%
- % Inhibition (CYP2D6; pre-incubation time 30 min): 57%
- inhibition of CYP2D6 (in words) (CYP2D6; at 20.7 mM): inhibited

Molecule: phenylbutyrate [PBA]
- inhibition of CYP1A2 (in words) (CYP1A2; 5 mM (0.821 mg/ml)): did not inhibit
- % Inhibition (CYP1A2; [13]): 6%
- % Inhibition (CYP1A2; [14]): 2%
- inhibition of CYP2C8 (in words) (CYP2C8; 5 mM (0.821 mg/ml)): did not inhibit
- % Inhibition (CYP2C8; [13]): 24%
- % Inhibition (CYP2C8; [14]): 27%
- extent of induction lower compared to the positive control (rifampicin) (CYP3A4/5 [6]): about 50%
- inhibition of CYP2C19 (in words) (CYP2C19; 5 mM (0.821 mg/ml)): did not inhibit
- % Inhibition (CYP2C19; [13]): 26%
- % Inhibition (CYP2C19; [14]): 19%
- % Inhibition (CYP3A4/5 [5]; Testosterone 6β-hydroxylase, 5 mM, pre-incubation time 0 min): 80%
- % Inhibition (CYP3A4/5 [5]; Testosterone 6β-hydroxylase, 5 mM, pre-incubation time 30 min): 85%
- PBA Mean peak concentration ([7]; Cirrhotic - HE 9 ml BID): 0.1412 mg/mL
- PBA Mean peak concentration ([7]; Healthy volunteer): 0.037 mg/mL
- PBA Mean peak concentration ([7]; UCD adult): 0.0701 mg/mL
- PBA Mean peak concentration ([7]; UCD pediatric): 0.0956 mg/mL
